# Values quoted from earlier work in patent US20190160058A1, “METHODS OF TREATMENT WITH SELECTIVE CB2 RECEPTOR AGONISTS” (Arena Pharmaceuticals, Inc., priority 2016, published 2019).
# Assays:
# [1] = test system: bovine nasal cartilage explants; conditions: in vitro; cited from earlier work
# EAE mouse model = conditions: in vivo; cited from earlier work
# mice = conditions: cited from earlier work
# RPE cells = conditions: cited from earlier work
# [2] = test system: LPS-induced bladder inflammation; conditions: in vivo; cited from earlier work
# [3] = test system: bone marrow-derived osteoblasts/stromal cells; conditions: in vitro; cited from earlier work
# [4] = test system: ovariectomy-induced bone loss; conditions: in vivo; cited from earlier work
# guinea pigs = conditions: cited from earlier work
# conscious guinea-pigs = conditions: given prior to exposure to citric acid; cited from earlier work
# [5] = test system: guinea pig vagus nerve preparations; conditions: in vitro; cited from earlier work
# [6] = test system: human vagus nerve preparations; conditions: in vitro; cited from earlier work
smiles,measurement,setting,value
Cc1c(C(=O)c2cccc3ccccc23)c2cccc3c2n1[C@H](CN1CCOCC1)CO3 [WIN 55212-2],IL-1alpha-stimulated proteoglycan and collagen degradation,[1],significantly inhibit
same,leukocyte rolling and adhesion in the brain,EAE mouse model,significantly inhibits leukocyte rolling and adhesion in the brain
same,number of capsaicin-induced coughs,mice,dose-dependent inhibition
CCCn1c(C)c(C(=O)c2cccc3ccccc23)c2ccccc21 [JWHO15],protection from oxidative damage,RPE cells,provides comparable protection
same,LPS-induced bladder inflammation,[2],antagonize LPS-induced bladder inflammation
CCCCCCC(C)(C)c1cc(OC)c([C@@H]2C=C(CO)[C@@H]3C[C@H]2C3(C)C)c(OC)c1 [HU-308],"osteoblast numbers and activity, osteoclast precursor proliferation",[3],enhances endocortical osteoblast numbers and activity while simultaneously inhibiting proliferation of osteoclast precursors
same,"cell recruitment, proliferation and axonal loss",EAE mouse model,"markedly reduces the recruitment of immature myeloid cells and T cells, microglial and infiltrating myeloid cell proliferation, and axonal loss"
same,bone loss and cortical thickness,[4],attenuates ovariectomy-induced bone loss and stimulates cortical thickness
CCCCC/C=C\C/C=C\C/C=C\C/C=C\CCCC(=O)NCCO [anandamide],number of capsaicin-induced coughs,guinea pigs,dose-dependent inhibition
CCCC(C)(C)c1ccc2c(c1)OC(C)(C)[C@@H]1CC=C(C)C[C@@H]21 [JWH133],cough,conscious guinea-pigs,significantly reduces cough
same,"capsaicin-, PGE2-, and hypertonic saline-induced depolarization",[5],"reduces capsaicin-, PGE2-, and hypertonic saline-induced depolarization"
same,"capsaicin-, PGE2-, and hypertonic saline-induced depolarization",[6],"reduces capsaicin-, PGE2-, and hypertonic saline-induced depolarization"
